row,melting point [°C],SMILES
1,146 to 147.5,"COc1cc2nc(N(C)Cc3cccc(OCCO)c3)[nH]c(=O)c2c(OC)c1OC [Example F-1, 2-{[3-(2-Hydroxy-ethoxy)-benzyl]-methyl-amino}-5,6,7-trimethoxy-1H-quinazolin-4-one]"
2,191 to 193.5,"COc1cc2nc(N(C)Cc3cccc(OC[S+](C)[O-])c3)[nH]c(=O)c2c(C)c1OC (centres unmarked) [Example F-2, 2-[(3-Methanesulfinylmethoxy-benzyl)-methyl-amino]-6,7-dimethoxy-5-methyl-1H-quinazolin-4-one]"
3,183.9 to 185.4,"COc1cc2[nH]c(N(C)Cc3cccc(OCS(C)(=O)=O)c3)nc(=O)c2c(OC)c1OC [Example F-6, 2-[(3-Methanesulfonylmethoxy-benzyl)-methyl-amino]-5,6,7-trimethoxy-1H-quinazolin-4-one]"
4,180.5 to 183.1,"COc1cc2[nH]c(N(C)Cc3cccc(OCCO)c3)nc(=O)c2c(C)c1OC [Example F-9, 2-{[3-(2-Hydroxy-ethoxy)-benzyl]-methyl-amino}-6,7-dimethoxy-5-methyl-1H-quinazolin-4-one]"
5,144.8 to 145.9,"COCCOc1cccc(CN(C)c2nc(=O)c3c(C)c(OC)c(OC)cc3[nH]2)c1 [Example F-10, 6,7-Dimethoxy-2-{[3-(2-methoxy-ethoxy)-benzyl]-methyl-amino}-5-methyl-1H-quinazolin-4-one]"
6,144.8 to 145.9,"COCCOc1cccc(CN(C)c2nc(=O)c3c(OC)c(OC)c(OC)cc3[nH]2)c1 [Example F-11, 5,6,7-Trimethoxy-2-{[3-(2-methoxy-ethoxy)-benzyl]-methyl-amino}-1H-quinazolin-4-one]"
7,191 to 192.9,"COc1cc2[nH]c(N(C)Cc3cccc(Oc4ncccn4)c3)nc(=O)c2c(OC)c1OC [Example F-16, 5,6,7-Trimethoxy-2-{methyl-[3-(pyrimidin-2-yloxy)-benzyl]-amino}-1H-quinazolin-4-one]"
8,215 to 217,"COc1cc2[nH]c(N(C)Cc3cccc(NS(C)(=O)=O)c3)nc(=O)c2c(C(C)C)c1OC [Example G-2, N-(3-{[(5-Isopropyl-6,7-dimethoxy-4-oxo-1,4-dihydro-quinazolin-2-yl)-methyl-amino]-methyl}-phenyl)-methanesulfonamide]"
9,60.5 to 61.4,"COc1cc2[nH]c(N(C)Cc3cccc(NCCO)c3)nc(=O)c2c(OC)c1OC [Example G-16, 2-{[3-(2-Hydroxy-ethylamino)-benzyl]-methyl-amino}-5,6,7-trimethoxy-1H-quinazolin-4-one]"
10,47 to 48.5,"COc1cc2[nH]c(N(C)Cc3cccc(NCCCO)c3)nc(=O)c2c(OC)c1OC [Example G-18, 2-{[3-(3-Hydroxy-propylamino)-benzyl]-methyl-amino}-5,6,7-trimethoxy-1H-quinazolin-4-one]"
11,178.9 to 179.9,"COCCNc1cccc(CN(C)c2nc(=O)c3c(OC)c(OC)c(OC)cc3[nH]2)c1 [Example G-19, 5,6,7-Trimethoxy-2-{[3-(2-methoxy-ethylamino)-benzyl]-methyl-amino}-1H-quinazolin-4-one]"
12,179.3 to 181.2,"COCCN(C)c1cccc(CN(C)c2nc(=O)c3c(OC)c(OC)c(OC)cc3[nH]2)c1 [Example G-20, 5,6,7-Trimethoxy-2-({3-[(2-methoxy-ethyl)-methyl-amino]-benzyl}-methyl-amino)-1H-quinazolin-4-one]"
13,155 to 158,"COc1cc2[nH]c(N(C)Cc3cccc(NC(C)=N)c3)nc(=O)c2c(C)c1OC [Example G-26, N-(3-{[(6,7-Dimethoxy-5-methyl-4-oxo-1,4-dihydro-quinazolin-2-yl)-methyl-amino]-methyl}-phenyl)-acetamidine]"
14,185 to 186,"COc1cc2[nH]c(N(C)Cc3cccc(N=CN(C)C)c3)nc(=O)c2c(C)c1OC [Example G-30, N′-(3-{[(6,7-Dimethoxy-5-methyl-4-oxo-1,4-dihydro-quinazolin-2-yl)-methyl-amino]-methyl}-phenyl)-N,N-dimethyl-formamidine]"
15,148 to 150,"COc1cc2[nH]c(N(C)Cc3cccc(N=C(C(C)C)N(C)C)c3)nc(=O)c2c(OC)c1OC [Example G-32, N,N-Dimethyl-N′-(3-{[methyl-(5,6,7-trimethoxy-4-oxo-1,4-dihydro-quinazolin-2-yl)-amino]-methyl}-phenyl)-isobutyramidine]"
16,224.6 to 225.5,"CCc1c(OC)c(OC)cc2[nH]c(N(C)Cc3cccc(N=C(C)N(C)C)c3)nc(=O)c12 [Example G-33, N′-(3-{[(5-Ethyl-6,7-dimethoxy-4-oxo-1,4-dihydro-quinazolin-2-yl)-methyl-amino]-methyl}-phenyl)-N,N-dimethyl-acetamidine]"
17,145,"COCCC(=Nc1cccc(CN(C)c2nc(=O)c3c(OC)c(OC)c(OC)cc3[nH]2)c1)N(C)C [Example G-36, 3-Methoxy-N,N-dimethyl-N′-(3-{[methyl-(5,6,7-trimethoxy-4-oxo-1,4-dihydro-quinazolin-2-yl)-amino]-methyl}-phenyl)-propionamidine]"
18,141.3 to 144.7,"COc1cc2[nH]c(N(C)Cc3cccc(N=C4NCCN4)c3)nc(=O)c2c(C)c1OC [Example G-38, 2-{[3-(Imidazolidin-2-ylideneamino)-benzyl]-methyl-amino}-6,7-dimethoxy-5-methyl-1H-quinazolin-4-one]"
19,130 to 133,"COc1cc2[nH]c(N(C)Cc3cccc(N=C4CCCN4C)c3)nc(=O)c2c(OC)c1OC [Example G-39, 5,6,7-Trimethoxy-2-{methyl-[3-(1-methyl-pyrrolidin-2-ylideneamino)-benzyl]-amino}-1H-quinazolin-4-one]"

# Further lines, the molecule ahead of its results:
row,SMILES,melting point [°C]
1,"COc1cc2[nH]c(N(C)Cc3cccc(N4C(=O)CCC4=O)c3)nc(=O)c2c(OC)c1OC [Example 260, 1-(3-{[Methyl-(5,6,7-trimethoxy-4-oxo-1,4-dihydro-quinazolin-2-yl)-amino]-methyl}-phenyl)-pyrrolidine-2,5-dione]",125.5 to 128.5
2,"COc1cc2[nH]c(N(C)Cc3cccc(N4CCNC4=O)c3)nc(=O)c2c(OC)c1OC [Example 261, 5,6,7-Trimethoxy-2-{methyl[3-(2-oxo-imidazolidin-1-yl)-benzyl]-amino}-1H-quinazolin-4-one]",130 to 133
3,"COc1cc2[nH]c(N(C)Cc3cccc(N4CCN(C)C4=O)c3)nc(=O)c2c(C)c1OC [Example 262, 6,7-Dimethoxy-5-methyl-2-{methyl-[3-(3-methyl-2-oxo-imidazolidin-1-yl)-benzyl]-amino}-1H-quinazolin-4-one]",230 to 230.5
4,"COc1cc2[nH]c(N(C)Cc3cccc(N4CCN(C)C4=O)c3)nc(=O)c2c(OC)c1OC [Example 263, 5,6,7-Trimethoxy-2-{methyl-[3-(3-methyl-2-oxo-imidazolidin-1-yl)-benzyl]-amino}-1H-quinaozlin-4-one]",205.4 to 207.8
5,"CCN1CCN(c2cccc(CN(C)c3nc(=O)c4c(C)c(OC)c(OC)cc4[nH]3)c2)C1=O [Example 264, 2-{[3-(3-Ethyl-2-oxo-imidazolidin-1-yl)-benzyl]-methyl-amino}-6,7-dimethoxy-5-methyl-1H-quinaozlin-4-one]",201.4 to 207.4
6,"CCN1CCN(c2cccc(CN(C)c3nc(=O)c4c(OC)c(OC)c(OC)cc4[nH]3)c2)C1=O [Example 265, 2-{[3-(3-Ethyl-2-oxo-imidazolidin-1-yl)-benzyl]-methyl-amino}-5,6,7-trimethoxy-1H-quinaozlin-4-one]",200.3 to 200.9
7,"COCCN1CCN(c2cccc(CN(C)c3nc(=O)c4c(OC)c(OC)c(OC)cc4[nH]3)c2)C1=O [Example 266, 5,6,7-Trimethoxy-2-({3-[3-(2-methoxy-ethyl)-2-oxo-imidazllidin-1-yl]-benzyl}-methyl-amino)-1H-quinazolin-4-one]",199.5 to 202.1
8,"COc1cc2[nH]c(N(C)Cc3cccc(C(C)N4CCCC4)n3)nc(=O)c2c(C)c1OC (centres unmarked) [Example 275, 6,7-Dimethoxy-5-methyl-2-{methyl-[6-(1-pyrrolidin-1-yl-ethyl)-pyridin-2-ylmethyl]-amino}-1H-quinazolin-4-one]",75.4 to 85.6
9,"COc1cc2[nH]c(N(C)Cc3cccc(C(C)N4CCC4)n3)nc(=O)c2c(OC)c1OC (centres unmarked) [Example 278, 2-{[6-(1-Aztidin-1-yl-ethyl)-pyridin-2-ylmethyl]-methyl-amino}-5,6,7-trimethoxy-1H-quinazolin-4-one]",70.8 to 78.8
10,"COc1cc2[nH]c(N(C)Cc3cccc(C(C)N(C)S(C)(=O)=O)c3)nc(=O)c2c(OC)c1OC (centres unmarked) [Example 292, N-Methyl-N-[1-(3-{[methyl-(5,6,7-trimethoxy-4-oxo-1,4-dihydro-quinazolin-2-yl)-amino]-methyl}-phenyl)-ethyl]-methanesulfonamide]",171 to 172.4
11,COc1cc2[nH]c(N(C)Cc3cccc(C(C)N(C)C(=O)N(C)C)c3)nc(=O)c2c(OC)c1OC (centres unmarked) [Example 293],68 to 70
12,"COCCOC(=O)N(C)Cc1cccc(CN(C)c2nc(=O)c3c(C)c(OC)c(OC)cc3[nH]2)c1 [Example 294, (3-{[(6,7-Dimethoxy-5-methyl-4-oxo-1,4-dihydro-quinazolin-2-yl)-methyl-amino]-methyl}-benzyl)-methyl-carbamic acid 2-methoxy-ethyl ester]",145.8 to 146.9
13,"COc1cc2[nH]c(N(Cc3ccccc3)C(C)C)nc(=O)c2cc1OC [Example A-7, 2-(Benzyl-isopropyl-amino)-6,7-dimethoxy-1H-quinazolin-4-one]",168 to 170.5
14,"COc1cc2[nH]c(N(C)Cc3cccc(N4C=NC(C)(C)C4)c3)nc(=O)c2cc1OC [Example A-12, 2-{[3-(4,4-Dimethyl-4,5-dihydro-imidazol-1-yl)-benzyl]-methyl-amino}-6,7-dimethoxy-1H-quinazolin-4-one]",240 to 244
15,"COc1cc2[nH]c(N(C)Cc3cccc(N)c3)nc(=O)c2c(C)c1OC [Example B-1, 2-[(3-Amino-benzyl)-methyl-amino]-6,7-dimethoxy-5-methyl-1H-quinazolin-4-one]",268 to 269.5
16,"CNCc1cccc(CN(C)c2nc3cc(OC)c(OC)c(C)c3c(=O)[nH]2)c1 [Example C-1, 6,7-Dimethoxy-5-methyl-2-[methyl-(3-methylaminomethyl-benzyl)-amino]-1H-quinazolin-4-one]",179 to 181.3
